Assay results: ChEMBL document CHEMBL5291721, “A preclinical secondary pharmacology resource illuminates target-adverse drug reaction associations of marketed drugs” (Nat Commun, 2023)

What was measured:
[1] = molecular target: T1, Equilibrative nucleoside transporter 1 (Homo sapiens, UniProt Q99808)
T1 sequence (Q99808 whole entry): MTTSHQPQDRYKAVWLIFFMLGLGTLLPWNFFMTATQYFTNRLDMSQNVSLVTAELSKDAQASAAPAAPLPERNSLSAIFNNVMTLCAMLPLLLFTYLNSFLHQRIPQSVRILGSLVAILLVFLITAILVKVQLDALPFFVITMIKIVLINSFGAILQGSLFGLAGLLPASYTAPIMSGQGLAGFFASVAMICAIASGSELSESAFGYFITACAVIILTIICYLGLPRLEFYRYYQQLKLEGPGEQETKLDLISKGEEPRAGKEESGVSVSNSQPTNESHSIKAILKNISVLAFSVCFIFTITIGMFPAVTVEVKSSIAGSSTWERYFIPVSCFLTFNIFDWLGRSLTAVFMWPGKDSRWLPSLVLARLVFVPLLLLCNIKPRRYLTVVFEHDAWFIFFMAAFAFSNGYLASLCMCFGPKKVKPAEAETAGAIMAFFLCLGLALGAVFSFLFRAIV

[2] = molecular target: Gamma-aminobutyric acid receptor subunit alpha-1 (Rattus norvegicus, UniProt P62813)
Chain of Gamma-aminobutyric acid receptor subunit alpha-1 (P62813 whole entry): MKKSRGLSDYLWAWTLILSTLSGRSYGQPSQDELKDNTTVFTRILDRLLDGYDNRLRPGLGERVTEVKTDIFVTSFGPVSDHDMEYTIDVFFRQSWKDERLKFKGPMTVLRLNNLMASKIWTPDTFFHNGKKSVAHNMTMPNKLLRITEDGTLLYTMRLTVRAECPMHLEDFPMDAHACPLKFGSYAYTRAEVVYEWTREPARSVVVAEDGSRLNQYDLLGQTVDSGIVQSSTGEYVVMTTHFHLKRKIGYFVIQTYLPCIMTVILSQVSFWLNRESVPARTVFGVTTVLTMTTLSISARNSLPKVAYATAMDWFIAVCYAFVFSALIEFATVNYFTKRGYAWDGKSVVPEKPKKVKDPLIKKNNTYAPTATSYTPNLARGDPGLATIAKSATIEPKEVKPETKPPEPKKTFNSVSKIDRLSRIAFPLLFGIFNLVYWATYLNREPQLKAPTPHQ

[3] = molecular target: T2, 5-hydroxytryptamine receptor 2B (Homo sapiens, UniProt P41595); format: functional, cell-based
T2 sequence (P41595 whole entry): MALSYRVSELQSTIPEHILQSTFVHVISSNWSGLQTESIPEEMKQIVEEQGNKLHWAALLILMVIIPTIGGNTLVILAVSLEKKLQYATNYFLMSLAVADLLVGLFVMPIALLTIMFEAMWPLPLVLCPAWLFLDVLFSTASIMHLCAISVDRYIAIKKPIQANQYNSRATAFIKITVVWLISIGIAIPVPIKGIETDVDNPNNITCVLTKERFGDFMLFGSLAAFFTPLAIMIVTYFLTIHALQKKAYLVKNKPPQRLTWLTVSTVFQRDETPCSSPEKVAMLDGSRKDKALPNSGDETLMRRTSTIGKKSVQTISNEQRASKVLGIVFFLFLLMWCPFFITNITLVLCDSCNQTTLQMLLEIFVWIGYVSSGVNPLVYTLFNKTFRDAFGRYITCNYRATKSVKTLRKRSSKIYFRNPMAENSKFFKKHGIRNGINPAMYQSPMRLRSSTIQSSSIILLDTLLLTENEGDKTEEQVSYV

[4] = molecular target: T3, Alpha-2A adrenergic receptor (Homo sapiens, UniProt P08913); format: functional, cell-based
T3 sequence (P08913 whole entry): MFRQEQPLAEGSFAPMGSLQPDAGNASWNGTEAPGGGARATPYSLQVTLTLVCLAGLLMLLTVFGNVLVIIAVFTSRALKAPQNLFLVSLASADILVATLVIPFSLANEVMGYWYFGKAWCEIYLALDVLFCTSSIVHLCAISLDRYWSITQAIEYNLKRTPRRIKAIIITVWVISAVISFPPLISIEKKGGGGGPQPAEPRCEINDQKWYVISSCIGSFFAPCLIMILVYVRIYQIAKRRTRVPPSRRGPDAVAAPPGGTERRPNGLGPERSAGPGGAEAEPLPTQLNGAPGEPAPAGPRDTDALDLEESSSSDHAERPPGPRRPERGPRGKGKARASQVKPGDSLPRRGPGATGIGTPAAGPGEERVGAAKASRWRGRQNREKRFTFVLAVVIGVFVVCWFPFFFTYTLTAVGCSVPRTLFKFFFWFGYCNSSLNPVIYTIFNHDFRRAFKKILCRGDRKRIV

[5] = molecular target: T2, 5-hydroxytryptamine receptor 2B; format: functional, cell-based; remark: listed apart in the source
Adenosine receptor A3 = molecular target: T4, Adenosine receptor A3 (Homo sapiens, UniProt P0DMS8)
T4 sequence (P0DMS8 whole entry): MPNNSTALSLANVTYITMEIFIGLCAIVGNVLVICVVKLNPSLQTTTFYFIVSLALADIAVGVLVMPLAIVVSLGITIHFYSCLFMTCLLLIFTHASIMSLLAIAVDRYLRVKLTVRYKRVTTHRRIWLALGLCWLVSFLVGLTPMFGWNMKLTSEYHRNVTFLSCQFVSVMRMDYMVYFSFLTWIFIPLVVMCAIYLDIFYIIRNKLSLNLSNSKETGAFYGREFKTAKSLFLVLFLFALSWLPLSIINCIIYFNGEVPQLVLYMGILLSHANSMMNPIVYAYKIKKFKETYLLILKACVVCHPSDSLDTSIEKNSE

Cannabinoid receptor 1 = Cannabinoid receptor 1 (Homo sapiens, UniProt P21554); format: functional, cell-based
Chain of Cannabinoid receptor 1 (P21554 whole entry): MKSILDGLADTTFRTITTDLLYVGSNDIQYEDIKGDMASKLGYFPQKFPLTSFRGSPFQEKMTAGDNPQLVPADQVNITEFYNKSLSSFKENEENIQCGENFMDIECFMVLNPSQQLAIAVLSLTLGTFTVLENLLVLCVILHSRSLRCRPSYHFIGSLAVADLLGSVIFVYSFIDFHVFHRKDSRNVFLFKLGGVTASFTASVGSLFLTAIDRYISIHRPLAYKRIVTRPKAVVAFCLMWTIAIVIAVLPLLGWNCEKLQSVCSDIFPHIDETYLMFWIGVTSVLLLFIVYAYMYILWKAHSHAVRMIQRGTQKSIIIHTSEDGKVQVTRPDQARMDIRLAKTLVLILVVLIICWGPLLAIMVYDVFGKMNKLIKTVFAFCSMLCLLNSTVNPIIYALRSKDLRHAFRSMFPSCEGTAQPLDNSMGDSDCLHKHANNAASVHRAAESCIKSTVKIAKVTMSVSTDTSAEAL

[6] = molecular target: Sodium-dependent dopamine transporter (Homo sapiens, UniProt Q01959)
Chain of Sodium-dependent dopamine transporter (Q01959 whole entry): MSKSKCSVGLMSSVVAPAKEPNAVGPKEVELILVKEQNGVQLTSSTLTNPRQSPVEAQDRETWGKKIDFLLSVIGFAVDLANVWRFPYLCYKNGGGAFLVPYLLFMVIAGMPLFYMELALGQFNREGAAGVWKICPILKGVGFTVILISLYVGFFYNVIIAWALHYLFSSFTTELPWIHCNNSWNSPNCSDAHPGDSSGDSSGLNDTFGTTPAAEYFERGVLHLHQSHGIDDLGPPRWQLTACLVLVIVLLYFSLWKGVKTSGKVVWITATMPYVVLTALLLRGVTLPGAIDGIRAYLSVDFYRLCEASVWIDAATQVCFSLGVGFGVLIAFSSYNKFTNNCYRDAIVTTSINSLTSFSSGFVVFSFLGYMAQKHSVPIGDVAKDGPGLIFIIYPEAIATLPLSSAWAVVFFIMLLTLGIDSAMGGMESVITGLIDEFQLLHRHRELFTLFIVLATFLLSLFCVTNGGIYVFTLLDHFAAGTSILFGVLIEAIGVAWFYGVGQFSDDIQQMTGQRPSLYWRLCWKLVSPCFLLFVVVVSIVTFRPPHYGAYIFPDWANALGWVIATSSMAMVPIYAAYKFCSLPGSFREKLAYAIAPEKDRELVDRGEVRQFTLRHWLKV

[7] = molecular target: T5, Gastrin/cholecystokinin type B receptor (Homo sapiens, UniProt P32239)
T5 sequence (P32239 whole entry): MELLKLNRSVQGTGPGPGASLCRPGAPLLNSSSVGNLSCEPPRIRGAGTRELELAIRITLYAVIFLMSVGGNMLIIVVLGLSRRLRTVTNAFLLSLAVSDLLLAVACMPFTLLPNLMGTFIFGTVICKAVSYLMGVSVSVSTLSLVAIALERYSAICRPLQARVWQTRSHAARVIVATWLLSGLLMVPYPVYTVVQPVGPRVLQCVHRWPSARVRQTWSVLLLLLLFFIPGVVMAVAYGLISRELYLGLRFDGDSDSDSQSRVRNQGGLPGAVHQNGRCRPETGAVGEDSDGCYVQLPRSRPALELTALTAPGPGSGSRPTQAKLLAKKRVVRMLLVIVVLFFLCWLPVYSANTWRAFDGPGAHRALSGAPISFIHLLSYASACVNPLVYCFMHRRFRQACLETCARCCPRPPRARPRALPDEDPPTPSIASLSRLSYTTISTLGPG

[8] = molecular target: T6, Alpha-2C adrenergic receptor (Homo sapiens, UniProt P18825); format: functional
T6 sequence (P18825 whole entry): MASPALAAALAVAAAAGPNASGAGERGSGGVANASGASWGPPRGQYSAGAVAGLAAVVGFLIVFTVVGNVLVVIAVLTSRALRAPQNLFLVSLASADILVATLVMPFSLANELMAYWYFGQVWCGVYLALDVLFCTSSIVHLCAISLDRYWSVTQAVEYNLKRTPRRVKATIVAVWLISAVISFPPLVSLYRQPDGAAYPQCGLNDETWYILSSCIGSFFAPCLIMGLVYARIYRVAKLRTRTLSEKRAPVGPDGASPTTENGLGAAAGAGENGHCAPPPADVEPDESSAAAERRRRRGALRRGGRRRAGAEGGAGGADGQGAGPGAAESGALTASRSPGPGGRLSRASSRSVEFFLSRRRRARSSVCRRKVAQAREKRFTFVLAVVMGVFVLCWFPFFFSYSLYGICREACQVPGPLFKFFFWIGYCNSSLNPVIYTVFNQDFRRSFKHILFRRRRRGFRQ
Further: assay procedure not described here.

| Structure (SMILES) | AC50 [1] [µM] | AC50 [2] [µM] | AC50 [3] [µM] | AC50 [4] [µM] | AC50 [5] [µM] | AC50 (Adenosine receptor A3) [µM] | AC50 (Cannabinoid receptor 1) [µM] | AC50 [6] [µM] | AC50 [7] [µM] | AC50 [8] [µM] |
| --- | --- | --- | --- | --- | --- | --- | --- | --- | --- | --- |
| O=C(OCCN1CCOCC1)c1cccnc1Nc1cccc(C(F)(F)F)c1 [MORNIFLUMATE] | > 30 | > 30 | > 30 | > 30 | 10 | > 30 | > 30 | 12 | > 30 | > 30 |
| CCOC(=O)[C@H](CCc1ccccc1)N[C@H]1CCCN2CCC[C@@H](C(=O)O)N2C1=O [CILAZAPRIL] | > 30 | > 30 | > 30 | > 30 | > 30 | > 30 | > 30 | > 30 | > 30 | > 30 |
| C1=Cc2cccc(OCC3CNCCO3)c2C1 (stereo not given) [INDELOXAZINE] | > 30 | > 30 | > 30 | > 30 | 5.3 | > 30 | > 30 | 12 | > 30 | > 30 |
| CCOc1cc(N)c([N+](=O)[O-])cc1C(=O)NC1CCN(CC2CC=CCC2)CC1 (stereo not given) [CINITAPRIDE] | > 30 | > 30 | > 30 | > 30 | 0.19 | > 30 | > 30 | 20 | > 30 | 1.3 |
| CCCCCN(C)CCC(O)(P(=O)(O)O)P(=O)(O)O [IBANDRONIC ACID] | > 30 | > 30 | > 30 | > 30 | > 30 | > 30 | > 30 | > 30 | > 30 | > 30 |
| O=C(O)Cc1cn(-c2ccccc2)nc1-c1ccc(Cl)cc1 [LONAZOLAC] | > 30 | > 30 | > 30 | > 30 | > 30 | > 30 | > 30 | > 30 | > 10 | > 30 |
| C#C[C@]1(O)CC[C@H]2[C@@H]3CCC4=CCCC[C@@H]4[C@H]3CC[C@@]21C [LYNESTRENOL] | > 30 | > 30 | > 30 | > 30 | > 30 | > 30 | > 30 | > 30 | > 30 | > 30 |
| NC(CO)C(=O)NNCc1ccc(O)c(O)c1O (stereo not given) [BENSERAZIDE] | > 30 | > 10 | > 10 | > 10 | > 10 | 21.6 | > 30 | > 30 | > 30 | > 10 |
| CN1C(=O)COc2c(C(=O)NC3CN4CCC3CC4)cc(Cl)cc21 (stereo not given) [AZASETRON] | > 30 | > 30 | > 30 | > 30 | > 30 | > 30 | > 30 | > 30 | > 30 | > 30 |
